Assay: Measurement of logP values by HPLC on reversed phase columns (EEC directive 79/831 Annex V.A8)
Type: physicochemical
Conditions: for LogP^[a]: method [a]; for chromatographic logP: pH 2.7

LogP^[a] | chromatographic logP | Structure (SMILES)
3.37^[a] | – | CC1CCc2c(NC(=O)c3cn(C)nc3C(F)F)cccc2C1C (mixture of isomers) [Example 12]
3.21^[a] | – | CC1CCc2cccc(NC(=O)c3cn(C)nc3C(F)F)c2C1C (mixture of isomers) [Example 15]
3.60^[a] | – | CC1CCc2c(NC(=O)c3cn(C)nc3C(F)F)cccc2C1(C)C (racemic) [Example 1]
3.96^[a] | – | CC1CCc2cccc(NC(=O)c3cn(C)nc3C(F)F)c2C1(C)O (racemic) [Example 14]
3.44^[a] | – | CC1CCC(C)(C)c2cccc(NC(=O)c3cn(C)nc3C(F)F)c21 (racemic) [Example 17]
4.09^[a] | – | Cc1nc(C(F)F)c(C(=O)Nc2cccc3c2CCC(C)(C)C3C)s1 (racemic) [Example 18]
3.68^[a] | – | CC1c2cccc(NC(=O)c3cn(C)nc3C(F)F)c2CCC1(C)C (racemic) [Example 22]
– | 3.23 | Cc1nn(C)c(F)c1C(=O)Nc1cccc2c1CCCC2(C)C [Example 2, N-(5,5-dimethyl-5,6,7,8-tetrahydronaphthalen-1-yl)-5-fluoro-1,3-dimethyl-1H-pyrazole-4-carboxamide]
3.26^[a] | – | Cn1cc(C(=O)Nc2cccc3c2CCCC3(C)C)c(C(F)F)n1 [Example 4]
3.25^[a] | – | Cn1cc(C(=O)Nc2cccc3c2CC(C)(C)CC3)c(C(F)F)n1 [Example 5]
3.87^[a] | – | C=C1c2cccc(NC(=O)c3sc(C)nc3C(F)F)c2CCC1(C)C [Example 7]
3.48^[a] | – | C=C1c2cccc(NC(=O)c3cn(C)nc3C(F)F)c2CCC1(C)C [Example 10]
– | 2.31 | C=C1c2c(cccc2NC(=O)c2cn(C)nc2C(F)F)CCC1(C)C [Example 16, 3-(difluoromethyl)-N-(7,7-dimethyl-8-methylene-5,6,7,8-tetrahydronaphthalen-1-yl)-1-methyl-1H-pyrazole-4-carboxamide]
3.72^[a] | – | Cc1nc(C(F)F)c(C(=O)Nc2cccc3c2CC(C)(C)CC3)s1 [Example 25]
3.31^[a] | – | Cc1nn(C)c(F)c1C(=O)Nc1cccc2c1CC(C)(C)CC2 [Example 26]
2.68^[a] | – | Cn1cc(C(=O)Nc2cccc3c2CCCC3)c(C(F)F)n1 [Example 27]
2.92^[a] | – | Cn1cc(C(=O)Nc2cccc3c2CCCC3)c(C(F)(F)F)n1 [Example 28]

LogP^[a] | chromatographic logP | Structure (SMILES)
2.40^[a] | – | Cn1cc(C(=O)Nc2cccc3c2CCC(C)(C)C3=O)c(C(F)F)n1 [Example 29]
2.73^[a] | – | Cc1nc(C(F)F)c(C(=O)Nc2cccc3c2CCC(C)(C)C3=O)s1 [Example 33]
3.51^[a] | – | CC1c2c(cccc2NC(=O)c2cn(C)nc2C(F)F)CCC1(C)C (stereo not shown) [Example 34]
2.56^[a] | – | CON=C1CCCc2c(NC(=O)c3cn(C)nc3C(F)F)cccc21 [Example 38]
2.96^[a] | – | CCON=C1CCCc2c(NC(=O)c3cn(C)nc3C(F)F)cccc21 [Example 42]
3.35^[a] | – | Cn1cc(C(=O)Nc2cccc3c2CCC(C)(C)C3)c(C(F)F)n1 [Example 43]
3.81^[a] | – | Cc1nc(C(F)F)c(C(=O)Nc2cccc3c2CCC(C)(C)C3)s1 [Example 46]
3.92^[a] | – | CC1(C)CCCc2c(NC(=O)c3nccnc3I)ccc(F)c21 [Example 50]
4.06^[a] | – | CC1(C)CCCc2c(NC(=O)c3ccoc3C(F)F)ccc(F)c21 [Example 51]
3.25^[a] | – | CON=C1CCCc2c(NC(=O)c3ccoc3C(F)F)cccc21 [Example 53]
3.79^[a] | – | Cc1nc(C(F)F)c(C(=O)Nc2ccc(F)c3c2CCCC3(C)C)s1 [Example 58]
3.39^[a] | – | Cn1cc(C(=O)Nc2cccc3c2CCCC3(C)C)c(C(F)F)n1 [Example 60]
3.35^[a] | – | Cc1nn(C)c(F)c1C(=O)Nc1cccc2c1CCCC2(C)C [Example 61]
4.29^[a] | – | CC1(C)CCCc2c(NC(=O)c3ccsc3I)ccc(F)c21 [Example 63]
4.06^[a] | – | CC1(C)CCc2c(cccc2NC(=O)c2ccoc2C(F)F)C1 [Example 64]
3.68^[a] | – | CCON=C1CCCc2c(NC(=O)c3ccoc3C(F)F)cccc21 [Example 79]
3.87^[a] | – | Cn1cc(C(=S)Nc2ccc(F)c3c2CCCC3(C)C)c(C(F)F)n1 [Example 85]

Continued, compound first:

Structure (SMILES) | LogP^[a] | chromatographic logP
Cc1nn(C)c(C)c1C(=O)Nc1cccc2c1CCC(C)C2C (mixture of isomers) [Example 11] | 3.00^[a] | –
Cc1nn(C)c(F)c1C(=O)Nc1cccc2c1CCC(C)C2C (mixture of isomers) [Example 13] | 3.41^[a] | –
Cc1nc(C(F)F)c(C(=O)Nc2cccc3c2CCC(C)C3C)s1 (mixture of isomers) [Example 35] | 3.78^[a] | –
CCc1nc(C)sc1C(=O)Nc1cccc2c1CCC(C)C2C (mixture of isomers) [Example 36] | 3.87^[a] | –
CCc1nc(C)sc1C(=O)Nc1cccc2c1CCC(C)(C)C2C (racemic) [Example 19] | 4.19^[a] | –
Cc1nn(C)c(C)c1C(=O)Nc1cccc2c1CCC(C)(C)C2C (racemic) [Example 20] | 3.25^[a] | –
Cc1nn(C)c(F)c1C(=O)Nc1cccc2c1CCC(C)(C)C2C (racemic) [Example 21] | 3.70^[a] | –
C=C1c2cccc(NC(=O)c3c(C)nn(C)c3C)c2CCC1(C)C [Example 6] | 3.05^[a] | –
C=C1c2cccc(NC(=O)c3sc(C)nc3CC)c2CCC1(C)C [Example 8] | 3.99^[a] | –
C=C1c2cccc(NC(=O)c3c(C)nn(C)c3F)c2CCC1(C)C [Example 9] | 3.48^[a] | –
Cc1nn(C)c(C)c1C(=O)Nc1cccc2c1CC(C)(C)CC2 [Example 23] | 2.90^[a] | –
CCc1nc(C)sc1C(=O)Nc1cccc2c1CC(C)(C)CC2 [Example 24] | 3.79^[a] | –
Cc1nn(C)c(F)c1C(=O)Nc1cccc2c1CCC(C)(C)C2=O [Example 30] | 2.28^[a] | –
Cc1nn(C)c(C)c1C(=O)Nc1cccc2c1CCC(C)(C)C2=O [Example 31] | 2.04^[a] | –
CCc1nc(C)sc1C(=O)Nc1cccc2c1CCC(C)(C)C2=O [Example 32] | 2.71^[a] | –
CON=C1CCCc2c(NC(=O)c3c(C)nn(C)c3C)cccc21 [Example 37] | 2.17^[a] | –
CON=C1CCCc2c(NC(=O)c3c(C)nn(C)c3F)cccc21 [Example 39] | 2.47^[a] | –
CCON=C1CCCc2c(NC(=O)c3c(C)nn(C)c3F)cccc21 [Example 40] | 2.86^[a] | –
CCON=C1CCCc2c(NC(=O)c3c(C)nn(C)c3C)cccc21 [Example 41] | 2.58^[a] | –
Cc1nn(C)c(C)c1C(=O)Nc1cccc2c1CCC(C)(C)C2 [Example 45] | 2.94^[a] | –
CCc1nc(C)sc1C(=O)Nc1cccc2c1CCCC2=NOC [Example 47] | 3.02^[a] | –
CON=C1CCCc2c(NC(=O)c3sc(C)nc3C(F)F)cccc21 [Example 48] | 2.92^[a] | –
CON=C1CCCc2c(NC(=O)c3ccsc3Br)cccc21 [Example 49] | 3.37^[a] | –
CC1(C)CCCc2c(NC(=O)c3nccnc3C(F)(F)F)ccc(F)c21 [Example 52] | 3.96^[a] | –
CON=C1CCCc2c(NC(=O)c3nccnc3I)cccc21 [Example 54] | 2.94^[a] | –
CON=C1CCCc2c(NC(=O)c3nccnc3C(F)(F)F)cccc21 [Example 55] | 3.08^[a] | –

Structure (SMILES) | LogP^[a] | chromatographic logP
CON=C1CCCc2c(NC(=O)c3ccsc3I)cccc21 [Example 56] | 3.37^[a] | –
CC1(C)CCCc2c(NC(=O)C3=C(C(F)(F)F)OCCS3)ccc(F)c21 [Example 57] | 4.01^[a] | –
CCc1nc(C)sc1C(=O)Nc1ccc(F)c2c1CCCC2(C)C [Example 59] | 3.85^[a] | –
Cc1oc(C)c(C(=O)Nc2ccc(F)c3c2CCCC3(C)C)c1C [Example 62] | 4.51^[a] | –
Cc1oc(C)c(C(=O)Nc2cccc3c2CCC(C)(C)C3)c1C [Example 65] | 4.59^[a] | –
CC1(C)CCc2c(cccc2NC(=O)c2ccsc2Br)C1 [Example 66] | 4.41^[a] | –
CC1(C)CCc2c(cccc2NC(=O)c2nccnc2I)C1 [Example 67] | 4.01^[a] | –
CC1(C)CCc2c(cccc2NC(=O)c2nccnc2C(F)(F)F)C1 [Example 68] | 3.99^[a] | –
CC1(C)CCc2c(cccc2NC(=O)C2=C(C(F)(F)F)OCCS2)C1 [Example 69] | 3.99^[a] | –
CCON=C1CCCc2c(NC(=O)c3nccnc3I)cccc21 [Example 70] | 3.44^[a] | –
CON=C1CCCc2c(NC(=O)c3c(C)oc(C)c3C)cccc21 [Example 71] | 3.55^[a] | –
CCON=C1CCCc2c(NC(=O)c3nccnc3C(F)(F)F)cccc21 [Example 72] | 3.55^[a] | –
CCON=C1CCCc2c(NC(=O)c3c(C(F)(F)F)nn(C)c3F)cccc21 [Example 73] | 3.57^[a] | –
CCON=C1CCCc2c(NC(=O)C3=C(C(F)(F)F)OCCS3)cccc21 [Example 74] | 3.63^[a] | –
CON=C1CCCc2c(NC(=O)c3c(C(F)(F)F)nn(C)c3F)cccc21 [Example 75] | 3.11^[a] | –
CON=C1CCCc2c(NC(=O)C3=C(C(F)(F)F)OCCS3)cccc21 [Example 76] | 3.21^[a] | –
CCON=C1CCCc2c(NC(=O)c3ccsc3Br)cccc21 [Example 77] | 3.87^[a] | –
CCON=C1CCCc2c(NC(=O)c3c(C)oc(C)c3C)cccc21 [Example 78] | 4.01^[a] | –
CCON=C1CCCc2c(NC(=O)c3sc(C)nc3C(F)F)cccc21 [Example 80] | 3.37^[a] | –
CCON=C1CCCc2c(NC(=O)c3sc(C)nc3CC)cccc21 [Example 81] | 3.37^[a] | –
CCc1nc(C)sc1C(=O)Nc1cccc2c1CCC(C)(C)C2 [Example 82] | 3.87^[a] | –
CON=C1CCCc2c(NC(=S)c3ccoc3C(F)F)cccc21 [Example 83] | 3.70^[a] | –
CCON=C1CCCc2c(NC(=O)c3ccsc3I)cccc21 [Example 84] | 3.83^[a] | –
Cn1nc(C(F)(F)F)c(C(=O)Nc2cccc3c2CCC(C)(C)C3)c1F [Example 86] | 3.99^[a] | –
CC1(C)CCc2c(cccc2NC(=O)c2ccsc2I)C1 [Example 87] | 4.34^[a] | –

From patent US9630943B2, “Tetrahydronaphthyl(thio) carboxamides” (BAYER CROPSCIENCE AG, priority 2012, dated 2017)
